Measurements: ChEMBL document CHEMBL2074305, “P-glycoprotein induction in rat liver epithelial cells in response to acute 3-methylcholanthrene treatment” (Biochem Pharmacol, 1996)

Columns and labels:
[1] = target: Multidrug resistance protein 1a (Rattus norvegicus) (UniProt Q6PSM0); assay: TP_TRANSPORTER: Northern blot in vitro, nonparenchymal ral liver epithelial cells; type: functional; conditions: Epithelial cell
[2] = target: ATP-dependent translocase ABCB1 (Rattus norvegicus, UniProt P43245); assay: TP_TRANSPORTER: RT-PCR in vitro, nonparenchymal rat liver epithelial cells; type: functional, tissue-based; conditions: epithelial cell
Sequence of ATP-dependent translocase ABCB1 (P43245 whole entry): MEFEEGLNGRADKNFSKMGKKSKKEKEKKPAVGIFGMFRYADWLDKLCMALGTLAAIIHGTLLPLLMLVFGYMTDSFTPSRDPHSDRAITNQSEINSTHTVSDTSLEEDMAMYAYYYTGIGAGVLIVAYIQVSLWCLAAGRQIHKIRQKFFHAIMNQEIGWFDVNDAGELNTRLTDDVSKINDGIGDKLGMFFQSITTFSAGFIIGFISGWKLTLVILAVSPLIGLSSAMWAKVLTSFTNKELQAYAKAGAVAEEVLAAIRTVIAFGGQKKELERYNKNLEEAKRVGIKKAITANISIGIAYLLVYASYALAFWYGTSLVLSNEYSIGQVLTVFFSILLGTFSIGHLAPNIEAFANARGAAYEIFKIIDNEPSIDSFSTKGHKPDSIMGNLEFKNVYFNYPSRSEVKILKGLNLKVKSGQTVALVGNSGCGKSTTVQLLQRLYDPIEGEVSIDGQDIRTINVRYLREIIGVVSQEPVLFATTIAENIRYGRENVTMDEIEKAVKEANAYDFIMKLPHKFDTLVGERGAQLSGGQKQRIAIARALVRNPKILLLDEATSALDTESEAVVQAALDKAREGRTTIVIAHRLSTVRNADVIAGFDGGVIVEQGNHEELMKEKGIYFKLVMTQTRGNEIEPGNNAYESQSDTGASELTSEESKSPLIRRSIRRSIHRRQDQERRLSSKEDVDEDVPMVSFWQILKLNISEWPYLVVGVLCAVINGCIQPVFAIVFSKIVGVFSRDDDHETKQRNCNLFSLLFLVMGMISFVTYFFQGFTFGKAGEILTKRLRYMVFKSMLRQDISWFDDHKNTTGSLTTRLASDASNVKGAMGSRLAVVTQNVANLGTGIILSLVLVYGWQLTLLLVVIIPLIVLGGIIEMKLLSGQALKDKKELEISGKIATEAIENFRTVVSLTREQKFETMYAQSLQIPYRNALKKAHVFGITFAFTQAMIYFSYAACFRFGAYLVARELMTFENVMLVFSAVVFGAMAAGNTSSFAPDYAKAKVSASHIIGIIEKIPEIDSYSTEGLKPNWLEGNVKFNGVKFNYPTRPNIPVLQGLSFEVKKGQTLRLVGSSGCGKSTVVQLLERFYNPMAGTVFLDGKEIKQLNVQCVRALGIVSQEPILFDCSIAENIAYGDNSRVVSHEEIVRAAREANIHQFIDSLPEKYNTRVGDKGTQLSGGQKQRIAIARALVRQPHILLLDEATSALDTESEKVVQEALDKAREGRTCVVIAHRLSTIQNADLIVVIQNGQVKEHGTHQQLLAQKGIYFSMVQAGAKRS

[3] = target: Multidrug resistance protein 1a (Rattus norvegicus) (UniProt Q6PSM0); assay: TP_TRANSPORTER: Western in vitro, nonparenchymal rat liver epithelial cells; type: functional, tissue-based; conditions: Epithelial cell

Sequence of Multidrug resistance protein 1a (Rattus norvegicus) (Q6PSM0 as listed by the source): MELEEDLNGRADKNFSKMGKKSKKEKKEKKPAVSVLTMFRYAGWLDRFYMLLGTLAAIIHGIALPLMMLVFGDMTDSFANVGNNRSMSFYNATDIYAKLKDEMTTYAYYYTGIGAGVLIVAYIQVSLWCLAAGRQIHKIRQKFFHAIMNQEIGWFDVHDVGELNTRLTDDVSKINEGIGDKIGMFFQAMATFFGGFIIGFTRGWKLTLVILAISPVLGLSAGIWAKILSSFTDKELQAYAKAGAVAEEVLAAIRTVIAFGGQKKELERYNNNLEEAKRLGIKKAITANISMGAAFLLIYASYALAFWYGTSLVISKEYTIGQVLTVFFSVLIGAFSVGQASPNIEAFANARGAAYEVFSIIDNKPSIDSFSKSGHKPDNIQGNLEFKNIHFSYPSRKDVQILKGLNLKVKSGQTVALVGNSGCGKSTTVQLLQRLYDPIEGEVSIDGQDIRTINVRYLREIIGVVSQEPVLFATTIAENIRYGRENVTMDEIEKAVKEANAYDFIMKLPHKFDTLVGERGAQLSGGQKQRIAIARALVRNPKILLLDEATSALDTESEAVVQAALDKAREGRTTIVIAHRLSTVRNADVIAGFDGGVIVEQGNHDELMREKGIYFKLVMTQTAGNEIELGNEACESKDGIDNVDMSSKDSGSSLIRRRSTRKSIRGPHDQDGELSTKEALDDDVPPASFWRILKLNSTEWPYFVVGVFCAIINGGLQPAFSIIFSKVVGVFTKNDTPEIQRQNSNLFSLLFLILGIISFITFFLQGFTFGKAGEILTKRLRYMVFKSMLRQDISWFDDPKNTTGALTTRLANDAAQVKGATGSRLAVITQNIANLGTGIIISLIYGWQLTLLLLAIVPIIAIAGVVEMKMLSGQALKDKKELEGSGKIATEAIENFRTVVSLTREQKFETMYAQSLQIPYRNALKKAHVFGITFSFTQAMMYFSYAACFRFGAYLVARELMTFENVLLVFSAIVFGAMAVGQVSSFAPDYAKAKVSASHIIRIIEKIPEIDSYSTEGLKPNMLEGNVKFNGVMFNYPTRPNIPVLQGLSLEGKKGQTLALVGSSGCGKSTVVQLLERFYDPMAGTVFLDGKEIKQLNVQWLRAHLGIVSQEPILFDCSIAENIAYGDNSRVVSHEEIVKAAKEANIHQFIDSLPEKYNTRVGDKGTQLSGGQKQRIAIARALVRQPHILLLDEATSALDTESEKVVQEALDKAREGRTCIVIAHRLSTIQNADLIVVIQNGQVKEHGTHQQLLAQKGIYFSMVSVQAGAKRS

Structure (SMILES) | Activity [1] | Activity [2] | Activity [3]
C[C@@H]1C[C@@H]([C@H](O)CC2CC(=O)NC(=O)C2)C(=O)[C@@H](C)C1 | inducer [+] |  | 
c1ccc2c(c1)cc1ccc3cccc4ccc2c1c34 | inducer [+] |  | 
Cc1ccc2cc3c(ccc4ccccc43)c3c2c1CC3 [3-METHYLCHOLANTHRENE] |  | inducer [+] | inducer [+]
